Results published in patent US20100120679A1, “Targeting NBS1-ATM Interaction To Sensitize Cancer Cells To Radiotherapy And Chemotherapy” (SOUTHERN RESEARCH INSTITUTE, priority 2006, published 2010).
Peptide text beside a SMILES is read from it. * marks the point of attachment. Biotin = O=C1N[C@H]2[C@H](CS[C@H]2CCCCC(=O)*)N1

Tests used:
HeLa cells [1] = test: Length of time the peptides remain in cells (degradation, immunofluorescence)
Protocol: HeLa cells were treated with 10 μM R9, wtNIP, or scNIP for one hour and harvested at indicated time points before they were analyzed by immunofluorescence microscopy staining with an […].
Immunofluorescence microscopy: Exponentially growing cultures of cells were plated on sterile, […] coverslips, and incubated for 24 hours at 37° C. in 5% CO2 humidified air before they are treated with the NIP peptides at room temperature. Coverslips were washed with PBS and fixed with 4% paraformaldehyde-0.25% Triton X-100 for 15 minutes at room temperature, blocked for 30 minutes at room temperature, and incubated with FITC-conjugated streptavidin or anti-γH2AX and phospho-NBS1 antibodies (Rockland Immunochemicals, Gilbertsville, Pa.) for 1 hour at room temperature. Coverslips were then mounted with Vectashield Elite (Vector Labs, Burlingame, Calif.) and observed with a Leica fluorescence microscope. Images were captured at 40× magnification using a Q Imaging Retiga Exi digital camera and analyzed with Image Pro-Plus 5.1 software.
Because the peptides would be used in radiation studies, the length of time the peptides remain in cells was determined to ensure that the peptides would be present throughout the DNA repair process after IR.

HeLa cells [2] = test: Colony formation assay (radiosensitivity), HeLa
Protocol: Shown in A (HeLa), C (MO59J) and D (GM9607) are the susvival curves after indicated doses of radiation. Error bars represent +/−1 SEM, graphed are the mean of three independent experiments.
Colony formation assays: To determine the radiosensitivity, the colony forming assay was incorporated. Cells were harvested with 0.125% trypsin-0.05% EDTA, pelleted and re-suspended in 1 ml fresh media with a 22 g needle to disperse clumps prior to hemocytometer counting in trypan blue. Cells were then plated at limiting dilutions in […] and allowed to adhere overnight. Cultures were treated with PBS, R9, wtNIP, or scNIP for 1 hour, and irradiated (0-6Gy). Fresh peptides were added every four hours until 24 hours after IR, when the medium was replaced with peptide-free medium. Cultures were incubated for 10-12 days, harvested and stained with 0.5% crystal violet in methanol. Colony number was determined with a dissecting microscope. A population of >50 cells was counted as one colony, and the number of colonies was expressed as a percentage of the value for untreated mock irradiated control cells. The surviving curves were plotted by linear regression analyses and the D0 value represents the radiation dose that leads to 37% of survival. To determine the radiosensitizing potential of the peptides in comparison to other small molecule inhibitors, the sensitizing enhancement ratio (SER) was calculated based on the dose of radiation required to reduce survival to 37% in the presence of scNIP or wtNIP. The following formula was used: […]
Statistics: To establish statistical significance, Student's t-test was incorporated. The data were first fit to each experimental group over a dose range of 0-6Gy. Significant differences were established at p<0.05.
FIG. 6A depicts the survival curves for HeLa cells treated with R9, wtNIP, or scNIP over a dose range of 0 to 6 Gy.

[3] = test system: prostate cancer cell line DU-145; test: Colony formation assay (radiosensitivity), DU-145; type: cell-based, human
Protocol: Colony number was determined with a dissecting microscope. […] The following formula was used: […]
Radiation survival curves were characterized based on Do to define the effect of NIP effect on radiosensitivity. D0 represents the mean lethal dose required for 37% survival and is a measure of the intrinsic radiosensitivity of the cell. D0 values for HeLa treated with wtNIP were 1.9 compared with 3.0 for cells treated with scNIP. To establish the statistical significance of wtNIP-induced radiosensitivity, Student's t test (paired two-sample for means) was incorporated. […] Significant differences (p<0.05) in clonogenic survival were observed between cells treated with wtNIP and those treated with DMEM, R9, or scNIP. The SER was 1.58. […] These observations have been confirmed in the prostate cancer cell line DU-145 with an SER of 1.46. Taken as a whole, they provide strong evidence for the radiosensitizing potential of the wtNIP peptide.

In the case of `CC(C)C[C@H](NC(=O)[C@H](CC(=O)O)NC(=O)[C@H](CC(=O)O)NC(=O)[C@H](C)NC(=O)[C@H](CC(C)C)NC(=O)[C@H](CO)NC(=O)[C@H](CCC(=O)O)NC(=O)[C@H](CCC(=O)O)NC(=O)[C@H](CCCCN)NC(=O)[C@H](CCCNC(=N)N)NC(=O)[C@H](CCCNC(=N)N)NC(=O)[C@H](CCCNC(=N)N)NC(=O)[C@H](CCCNC(=N)N)NC(=O)[C@H](CCCNC(=N)N)NC(=O)[C@H](CCCNC(=N)N)NC(=O)[C@H](CCCNC(=N)N)NC(=O)[C@H](CCCNC(=N)N)NC(=O)[C@H](CCCNC(=N)N)NC(=O)CCCC[C@@H]1SC[C@@H]2NC(=O)N[C@@H]21)C(=O)O` [wtNIP] (Biotin-RRRRRRRRRKEESLADDL-OH), the “presence of peptides in cells” value (HeLa cells [1]) is reported as “strong distribution”, the “D0 (mean lethal dose required for 37% survival)” value (HeLa cells [2]) is reported as 1.9 and the “SER (dose required to reduce survival to 37%, scNIP versus wtNIP)” value (HeLa cells [2]) is reported as 1.58. For the same compound, the sensitizer enhancement ratio (HeLa cells [2]; 2Gy) was 1.66, the sensitizer enhancement ratio (HeLa cells [2]; 4Gy) was 2.61 and the sensitizer enhancement ratio (HeLa cells [2]; 6Gy) was 3.12. The “effect on radiosensitivity / IR-induced survival” value (HeLa cells [2]; dose range 0 to 6 Gy) was “can significantly decrease IR-induced survival” and the SER [3] was 1.46.
